Test system: Phakopsora pachyrhizi
Assay: Phakopsora test (soybeans)/protective
Format: in vivo, Phakopsora pachyrhizi on soybeans
Details: protective spray on young soybean plants, inoculated 1 day after spraying, evaluated 10 days after inoculation
Experimental: Phakopsora Test (Soybeans)/Protective Solvent: 28.5 parts by weight of acetone Emulsifier: 1.5 parts by weight of polyoxyethylene alkyl phenyl ether To produce a suitable preparation of active compound, 1 part by weight of active compound or active compound combination is mixed with the stated amounts of solvent and emulsifier, and the concentrate is diluted with water to the desired concentration. To test for protective activity, young plants are sprayed with the preparation of active compound or active compound combination at the stated rate of application. After the spray coating has dried on, the plants are placed in a greenhouse at a temperature of approximately 23° C. and a relative atmospheric humidity of approximately 70%. 1 day after spraying, the plants are inoculated with an aqueous spore suspension of the causal agent of soybean rust (Phakopsora pachyrhizi). The plants are then placed in a greenhouse at approximately 20° C. and a relative atmospheric humidity of approximately 80%. The test is evaluated 10 days after the inoculation. 0% means an efficacy which corresponds to that of the control, while an efficacy of 100% means that no disease is observed.

Compound | Efficacy in % (rate of application 10 ppm) | Efficacy in % (rate of application 0.5 ppm)
Cn1cc(C(=O)Nc2ccc(F)cc2-c2ccc(Cl)c(Cl)c2)c(C(F)F)n1 [(I-2) Bixafen, N-(3′,4′-dichloro-5-fluoro-1,1′-biphenyl-2-yl)-3-(difluoromethyl)-1-methyl-1H-pyrazole-4-carboxamide] | 50% | 
OC(Cc1ccccc1Cl)(Cn1nc[nH]c1=S)C1(Cl)CC1 (centres unmarked) [(III-1) Prothioconazole, Prothioconazole] |  | 50%

— patent US20120035165A1, “Use of fungicidal compound compositions for controlling certain rust fungi” (Bayer CropScience AG, priority 2008, published 2012)
